The record followed here is BindingDB's records for doi:10.1016/j.bmcl.2005.06.044 (The University of Tokyo, 2005).

Structures are written as SMILES.

The nature of the experiment: Androgen antagonistic activity as inhibitory concentration against testosterone-induced SC-3 cell proliferation.
Compound `CCC(CC)(c1ccc(O)c(C)c1)c1ccc(NCC(=O)C(C)(C)C)c(C)c1` came in with an IC50 of 3500 nM. This lies in the single-digit micromolar range.
To `CCC(CC)(c1ccc(NCC(=O)C(C)(C)C)c(C)c1)c1ccc(NCC(=O)C(C)(C)C)c(C)c1` belongs 1000 nM.
To `CCC(CC)(c1ccc(NCC(O)C(C)(C)C)c(C)c1)c1ccc(NCC(O)C(C)(C)C)c(C)c1` (centres undefined) belongs 1000 nM; to `CCC(CC)(c1ccc(NCC(=O)C(C)(C)C)c(C)c1)c1ccc(OCC(=O)C(C)(C)C)c(C)c1`, 1200 nM; to `CCC(CC)(c1ccc(NCCC(C)(C)O)c(C)c1)c1ccc(OCC(=O)C(C)(C)C)c(C)c1` [1-(4-{1-Ethyl-1-[4-(3-hydroxy-3-methyl-butylamino)-3-methyl-phenyl]-propyl}-2-methyl-phenoxy)-3,3-dimethyl-butan-2-one], 820 nM.
The value for `CCC(CC)(c1ccc(NCC(O)CO)c(C)c1)c1ccc(OCC(O)C(C)(C)C)c(C)c1` (centres undefined) [3-(4-{1-Ethyl-1-[4-(2-hydroxy-3,3-dimethyl-butoxy)-3-methyl-phenyl]-propyl}-2-methyl-phenylamino)-propane-1,2-diol] was 9 nM.
`CCC(CC)(c1ccc(NCCC(C)(C)O)c(C)c1)c1ccc(NCCC(C)(C)O)c(C)c1` [4-(4-{1-Ethyl-1-[4-(3-hydroxy-3-methyl-butylamino)-3-methyl-phenyl]-propyl}-2-methyl-phenylamino)-2-methyl-butan-2-ol] gave a half-maximal inhibitory concentration (IC50) of 6800 nM.
To `CCC(CC)(c1ccc(OC[C@H](O)CO)c(C)c1)c1ccc(OC[C@H](O)C(C)(C)C)c(C)c1` [(R)-3-(4-(3-(4-((R)-2-hydroxy-3,3-dimethylbutoxy)-3-methylphenyl)pentan-3-yl)-2-methylphenoxy)propane-1,2-diol] belongs 19 nM.
To `CCC(CC)(c1ccc(OCC(=O)C(C)(C)C)c(C)c1)c1ccc(OCC(=O)C(C)(C)C)c(C)c1` [LG190155] belongs 1900 nM.

As a reminder, the IC50 is the concentration that gives 50% inhibition.
